A melting point compilation (Tetko et al.; mined from patent text by program, amines drawn as free bases though some values may be those of a salt)

Row | SMILES | melting point [°C]
1 | Cc1ccc(-c2ccc(S(C)(=O)=O)cc2)n1-c1ccc(-c2ccoc2)c(Cl)c1 | 165 to 168
2 | CCc1cccc2c(C(CO)NC=O)c[nH]c12 (stereo not drawn) | 195 to 197
3 | CCC(=O)NCC[C@@H]1CCc2cc(Br)c(O)c(CCO)c21 | 85 to 87
4 | CCOC(=O)C1=C(C)NC(C)=C(C(=O)OCCOC)C1c1cccc([N+](=O)[O-])c1 (stereo not drawn) | 108
5 | C=CC12COc3cc(Cl)ccc3C1=NN(C(=O)Nc1ccc(C(F)(F)F)cc1)C2 (stereo not drawn) | 157 to 161
6 | O=C(O)Cn1cccc(O)c1=O | 203 to 205
7 | O=Cc1cc2cc(Cl)c(Cl)cc2nc1Cl | 190 to 191
8 | COc1ccc(F)cc1C(=O)NC1COc2cc(OC)c(S(N)(=O)=O)cc2C1 (stereo not drawn) | 209 to 210
9 | CCc1nn(Cc2n[nH]c(=O)o2)c(CC)c1Oc1cc(Cl)cc(Cl)c1 | 138 to 142
10 | CC(=O)O[C@H]1CC[C@H](CCCCCCC(=O)O)CC1 | 66 to 68
11 | O=C(O)CCCC12CCC(=O)N1C(=O)CC2 | 178 to 180
12 | CN(C)C(=O)c1ncn2c(=O)n(CCCl)nnc12 | 114 to 116
13 | CNC(=O)ON=C(C)SC(C)C(N)=O (stereo not drawn) | 161 to 163
14 | CCOC(=O)/C=C/c1ccc(OCC(C)(C)O)cc1Oc1ncc(C(F)(F)F)cc1Cl | 79 to 83
15 | Cc1nc2ccccc2c(N)c1C(C)O (stereo not drawn) | 214
16 | CCCCNC(=O)OC1c2ncccc2C(=O)N1c1ccc2ccc(Cl)nc2n1 (stereo not drawn) | 215
17 | CC(C)(C)OC(=O)NC1CCN(c2ccc(C(N)=O)cc2)CC1 | > 270
18 | CN1CCC(c2c[nH]c3ccc(-c4cccs4)cc23)C1 (stereo not drawn) | 166 to 168
19 | CCCc1c(OCC(O)COc2ccc(C(=O)O)cc2Br)ccc(C(C)=O)c1O (stereo not drawn) | 93 to 95
20 | O=C(O)c1cn(CC2CC2)c2c(F)c(F)c(F)cc2c1=O | 223 to 255
21 | COc1ccc(S(=O)(=O)N2CSCC2=O)cc1 | 129 to 130

Row | SMILES | melting point [°C]
22 | NS(=O)(=O)c1ccc2c(c1)C(=NO)CCC2 | 162 to 164
23 | C#CCCCCn1ncc2c(N)c(C(=O)OCC=C)c(C)nc21 | 69 to 70
24 | CC(C)(C)c1cc(C2SC(CC(=O)N3CCCC3)C(=O)N2CCCCl)cc(C(C)(C)C)c1O (stereo not drawn) | 193 to 194
25 | CCOC(=O)CC(NC(=O)c1ccccc1)C(=O)C(C)C (stereo not drawn) | 44 to 46
26 | Cc1[nH]nc(Oc2ccc(C(F)(F)F)cc2[N+](=O)[O-])c1C | 92 to 95
27 | Cc1cccc(N2CC(=O)N(C)C(=O)N2)c1 | 173 to 175
28 | CCCCCCC1CCC(C(=O)Nc2c(C(C)C)cccc2C(C)C)C(=O)O1 (stereo not drawn) | 113 to 115
29 | COC(=O)[C@H](CS)NC(=O)[C@@H]1CCC(=S)N1 | 177 to 178
30 | CN(C)C1(c2ccc(F)cc2)CCC2(CC1)NCCc1c2[nH]c2ccccc12 (stereo not drawn) | 249 to 250
31 | CC(C)(CO)c1cc(OS(C)(=O)=O)ccc1O | 122 to 124
32 | COc1cc(C)c(C(=O)c2c(Cl)cccc2Cl)cc1OC(F)F | 126 to 128
33 | O=C(O)C1(NS(=O)(=O)c2ccc3oc4cc(Br)ccc4c3c2)CCCC1 | 177 to 178
34 | Cc1cc(Oc2c(Cl)cc(C(F)(F)F)cc2Cl)nn1C(=O)NCC1CCCO1 (stereo not drawn) | 74 to 76
35 | CC(O)C#CC1CCC2C3CCC4CC(O[Si](c5ccccc5)(c5ccccc5)C(C)(C)C)CCC4(C)C3CCC12C (stereo not drawn) | 68 to 70
36 | CC(C)(C)OC(=O)N1CCC(Cc2ccc(Cl)cc2)(C(=O)O)CC1 | 179 to 180
37 | CSc1ccc(C(=O)c2c(C)cc3n2CCC3C(=O)O)n1C (stereo not drawn) | 182 to 184
38 | COC(=O)Cn1nnnc1-c1c(Cl)c(Cl)cc2[nH]c(=O)c(=O)[nH]c12 | 281 to 283
39 | CCOC(=O)Nc1nc(C)c(-c2nc3ccccc3c(=O)n2-c2ccc(C)cc2)s1 | 220 to 222
40 | COc1cc(OC)c2c(=O)[nH]c(-c3cccc(-c4ccc(S(C)=O)cc4)c3)nc2c1 (stereo not drawn) | > 300
41 | COc1cc2c(cc1OC(C)C)-c1c(Br)c3c(n1CC2)C(=O)N(C(C)(C)C)CCOC3 | 160 to 162

Second part, the compound after the results:

Row | melting point [°C] | SMILES
42 | 193 to 194 | CC(C)N(CCN1C(=O)/C(=N/NC(N)=O)c2ccccc21)Cc1ccccc1
43 | 237 to 239 | CC(C)c1ccc(-c2ncc(-c3cccc(C(=O)O)c3)s2)cc1
44 | 80 to 82.5 | CC(=O)c1ccc(-c2ccc(F)cc2)c(F)c1
45 | 250 to 252 | O=C(Cc1ccc2c(c1)CCC(NS(=O)(=O)c1cccs1)C2)Nc1ccc(C(=O)O)cc1 (stereo not drawn)
46 | 178 to 179 | CCn1nc(-c2ccccc2)c(C(C)=O)c(Nc2cc(C)no2)c1=O
47 | 216 to 218 | Cc1cccc2c(Cc3nc4c(F)c(F)cc(F)c4s3)cn(CC(=O)O)c12
48 | 126 to 127 | COCc1cnc2c(NC(=O)c3ccccc3C(F)(F)F)cccc2c1-n1ccnc1
49 | 187 to 189 | CS(=O)(=O)c1cc(C(=O)O)cc(Cl)c1Nc1ccccc1
50 | 143 to 144 | CS(=O)c1ccc(C2=C(c3cccc(F)c3)C(=O)C(C)(C)O2)cc1 (stereo not drawn)
51 | 89 to 91 | Clc1ncn(CCOc2ccc(Oc3ccccc3)cc2)c1Cl
52 | 113 to 115 | Cc1cccc(C(N)c2ccc(OCCOc3ccc(C(N)c4cccc(C)c4)cc3)cc2)c1 (stereo not drawn)
53 | 145 to 146 | Cn1ncnc1COc1nc2c(cc1-c1ccoc1)nnn2-c1ccccc1F
54 | 206 to 208 | Cc1ccc([N+](=O)[O-])cc1Nc1nccc(-c2cncc(Br)c2)n1
55 | 231 to 234 | CCOC(=O)c1ccc(-c2cc3c(NCCCN4CCOCC4)ncnc3[nH]2)cc1
56 | 76 to 77 | COc1ccc(C(=C/C=C/C(=O)NCCCCc2cccnc2)c2ccc(OC)cc2)cc1
57 | 138 | CCCCc1ccc(N(Cc2ccc(N(C)C)cc2)C(=O)C2CCCc3c(O)cccc32)cc1 (stereo not drawn)
58 | 124 to 125 | OCCCn1c(=S)[nH]c2c(OCc3ccccc3)cccc21
59 | 122 to 124 | CCCCOc1cc(C(=O)O)cc(N)c1-c1ccccc1
60 | 226 | CCCNCCCOc1ccc(-c2ccc(C(=O)O)cc2)cc1-c1ccc2c(c1)C(C)(C)CCC2(C)C

Row | melting point [°C] | SMILES
61 | 176 to 178 | O=C(O)c1cc(S(=O)(=O)NCCc2ccc(Cl)cc2)ccc1Cl
62 | 232 to 238 | Nc1ccc(-c2nc(N3CCOCC3)c3sc(C(=O)NCC4CCN(c5ncc(C(=O)NO)cn5)CC4)cc3n2)cc1
63 | 224 to 226 | CCOc1ccc(-c2ccc3c(c2)C=C(C(=O)Nc2ccc(CN(C)C4CCOCC4)cc2)CCS3(=O)=O)cc1OCC
64 | 85 to 87 | COc1ccc2cc(C(=O)C(C)OS(=O)(=O)c3ccc(C)cc3)ccc2c1 (stereo not drawn)
65 | 164 to 165 | COc1cc(C=O)ccc1OCc1nc(-c2cccnc2)oc1C
66 | 186 to 188 | COC(=O)c1cn2c(-c3ccc(-c4ccccc4)cc3)csc2n1
67 | 152 to 153 | CCC(C)n1nc(C)n(-c2ccc(N3CCCN(c4ccc(C(=O)OC)cc4)CC3)cc2)c1=O (stereo not drawn)
68 | 139 | O=C(O)Cc1ccc(OCc2ccccc2)cc1OCc1ccccc1
69 | 127 to 128 | O=C(CCCCCNC(=O)C/C=C/c1ccccc1)NO
70 | 133 to 135 | CS(=O)(=O)c1ccc2ccn(C3CCN(CCc4ccc(F)cc4)CC3)c2c1
71 | 132 | CN(CCNC(=O)NCCSCc1csc(NC(=N)N)n1)CCN(Cc1ccc(F)cc1)c1ccccn1
72 | 110 to 111 | COc1ccc(-c2cc(=O)n(CCCOc3ccccc3)nc2-c2ccc(OC)cc2)cc1
73 | 93 to 95 | CC(=O)Nc1ccsc1C(=O)c1ccccc1
74 | 106 to 108 | Cc1ccccc1OCc1ccccc1I
75 | > 300 | COC(=O)c1ccc2nc(C)n(Cc3ccc(C=C4SC(=O)NC4=O)cc3Cl)c2n1
76 | > 210 | N=C(N)c1cccc(Oc2cc(C(N)=O)cc(Oc3cccc(C(=N)N)c3)n2)c1
77 | 186 to 187 | NC(=O)c1cc(F)cc(-c2cccc3cc(Cc4cc(F)cc(Cl)c4)sc23)c1
78 | 116 to 118 | CCCCc1nc2c(N)nc3ccccc3c2n1CCOCCON=C(C)C
79 | 268 | CC(=O)CC1NC(=O)c2sccc2-n2cccc21 (stereo not drawn)

Row | melting point [°C] | SMILES
80 | 135 to 137 | O=C1c2ccccc2C(=O)N1CCCOc1ccc(O)cc1
81 | 179 to 180 | CCCCOc1ccc(-c2ccc([C@@]3(CC(=O)O)CCCCS3(=O)=O)s2)cc1
82 | 50 to 53 | Oc1cc2c(cc1CCCCc1ccccc1)OC(CCc1ccccc1)C2 (stereo not drawn)
83 | 165 | Cc1nc2ccccc2c(=O)n1CCN1CCC(C(=O)c2ccc(F)cc2)CC1
84 | 171 to 173 | Cc1ccc(-c2cn3cc(-c4cccc(CO)c4)ccc3n2)cc1
85 | 240 to 243 | Cc1nc(NC(=O)n2ccnc2)sc1-c1ccnc(CC2CC2)n1
86 | 192 to 193 | COc1ccc(NC(=O)C(C#N)C(=O)c2cccn2C)cc1 (stereo not drawn)
87 | 93 | CCOC(=O)c1nnc(-c2ccc(OCC)cc2)o1
88 | 186 to 188 | O=C(O)/C=C/C=C(c1ccc(F)cc1)c1ccc(F)cc1
89 | 128 to 129 | C[C@@H](n1cnn(-c2ccc(OCC(F)(F)C(F)(F)F)cc2)c1=O)[C@@]1(c2ccc(F)cc2F)CO1
90 | 159 to 160 | COc1ccc(C=CC(=O)Nc2c(-c3ccccc3C)c3cc4c(cc3oc2=O)CCC4)cc1OC
91 | 162 | CCCc1c(OCCCOc2ccccc2)ccc2c1OC(CCC(=O)O)(CCC(=O)O)CC2=O
92 | 199 to 200 | CCC(=O)NCc1cccc(-c2nc(=O)c3ccccc3s2)n1
93 | 87 to 88 | CCN1CCN(c2cc(-c3ccccc3)c3ccccc3n2)CC1
94 | 153 to 154 | CC1(C)Cc2cccc(Oc3c(Cl)cc(NC(=S)NC(=O)c4c(F)cccc4F)cc3Cl)c2O1
95 | 88 to 89 | ClCc1ccc(-n2c3ccccc3c3ccccc32)cc1
96 | 143 to 145 | CCN1C(=O)C(C)(C)C(=O)N(C)c2cc(CN(CCn3ccc4oc(C)cc4c3=O)Cc3ccncc3)ccc21
97 | 168 to 172 | O=C(OCCN1CCOCC1)c1ccc(-c2n[nH]c3c2Cc2ccccc2-3)cc1
98 | 116 to 117 | O=C(CCCCCCCCCCBr)Nc1ccc(O)cc1
